Results as given in PubChem BioAssay AID258 (DTP/NCI, 2004).
Where “and” joins values, the source holds several entries; their conditions need not be identical. Identical values can stand only once. Inconclusive results and toxic doses are left out.

Test system: CD2F1 mice, L1210 leukemia sc, survival T/C
Assay: NCI In Vivo Anticancer Drug Screen. Data for tumor model L1210 Leukemia (subcutaneous) in CD2F1 (CDF1) mice
Settings: endpoint: median survival time, higher = longer survival
Outline: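 Antitumor activity is scored in tumor-bearing mice by comparing survival or tumor size of treated animals against vehicle-treated controls, reported as T/C.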

O=NN(CCCl)C(=O)NC1CCCCC1
T/C (dose: 0.5 mg/kg/injection, schedule: Q01DX009 (ip), vehicle: saline + alcohol): 98 % of control | T/C (dose: 0.5 mg/kg/injection, schedule: Q01DX009 (sc), vehicle: saline + alcohol): 101 % of control and 106 % of control | T/C (dose: 1.0 mg/kg/injection, schedule: Q01DX009 (ip), vehicle: saline + alcohol): 101 % of control | T/C (dose: 1.0 mg/kg/injection, schedule: Q01DX009 (sc), vehicle: saline + alcohol): 105 % of control and 114 % of control | T/C (dose: 2.0 mg/kg/injection, schedule: Q01DX009 (sc), vehicle: saline + alcohol): 119 % of control | T/C (dose: 3.0 mg/kg/injection, schedule: Q01DX Z (iv), vehicle: carboxymethylcellulose (CMC)): 105 % of control and 112 % of control | T/C (dose: 3.0 mg/kg/injection, schedule: Q01DX Z (oral), vehicle: carboxymethylcellulose (CMC)): 162 % of control | T/C (dose: 3.0 mg/kg/injection, schedule: Q01DX Z (sc), vehicle: carboxymethylcellulose (CMC)): 118 % of control | T/C (dose: 4.0 mg/kg/injection, schedule: Q01DX009 (ip), vehicle: saline + alcohol): 178 % of control and 186 % of control | T/C (dose: 5.0 mg/kg/injection, schedule: Q01DX Z (ip), vehicle: carboxymethylcellulose (CMC)): 177 % of control and 181 % of control | T/C (dose: 5.0 mg/kg/injection, schedule: Q01DX Z (iv), vehicle: carboxymethylcellulose (CMC)): 294 % of control | T/C (dose: 5.0 mg/kg/injection, schedule: Q01DX Z (oral), vehicle: carboxymethylcellulose (CMC)): 493 % of control | T/C (dose: 5.0 mg/kg/injection, schedule: Q01DX Z (sc), vehicle: carboxymethylcellulose (CMC)): 112 % of control and 155 % of control and 287 % of control | T/C (dose: 5.36 mg/kg/injection, schedule: Q01DX009 (sc), vehicle: saline + alcohol): 323 % of control | T/C (dose: 8.0 mg/kg/injection, schedule: Q01DX009 (ip), vehicle: saline + alcohol): 234 % of control and 261 % of control | T/C (dose: 8.4 mg/kg/injection, schedule: Q01DX Z (ip), vehicle: carboxymethylcellulose (CMC)): 381 % of control and 383 % of control | T/C (dose: 8.4 mg/kg/injection, schedule: Q01DX Z (iv), vehicle: carboxymethylcellulose (CMC)): 225 % of control and 261 % of control | T/C (dose: 8.4 mg/kg/injection, schedule: Q01DX Z (oral), vehicle: carboxymethylcellulose (CMC)): 412 % of control | T/C (dose: 8.4 mg/kg/injection, schedule: Q01DX Z (sc), vehicle: carboxymethylcellulose (CMC)): 106 % of control and 237 % of control and 300 % of control | T/C (dose: 10.7 mg/kg/injection, schedule: Q01DX009 (ip), vehicle: saline + alcohol): 337 % of control | T/C (dose: 10.7 mg/kg/injection, schedule: Q01DX009 (sc), vehicle: saline + alcohol): 378 % of control | T/C (dose: 12.0 mg/kg/injection, schedule: Q01DX009 (sc), vehicle: saline + alcohol): 325 % of control | T/C (dose: 14.0 mg/kg/injection, schedule: Q01DX Z (ip), vehicle: carboxymethylcellulose (CMC)): 255 % of control and 387 % of control | T/C (dose: 14.0 mg/kg/injection, schedule: Q01DX Z (iv), vehicle: carboxymethylcellulose (CMC)): 183 % of control and 381 % of control | T/C (dose: 14.0 mg/kg/injection, schedule: Q01DX Z (oral), vehicle: carboxymethylcellulose (CMC)): 255 % of control and 300 % of control | T/C (dose: 14.0 mg/kg/injection, schedule: Q07DX Z (sc), vehicle: carboxymethylcellulose (CMC)): 112 % of control | T/C (dose: 15.0 mg/kg/injection, schedule: Q01DX009 (ip), vehicle: Klucel (hydroxypropylcellulose) (HPC)): 220 % of control | T/C (dose: 16.0 mg/kg/injection, schedule: Q01DX009 (ip), vehicle: saline + alcohol): 306 % of control and 340 % of control | T/C (dose: 16.0 mg/kg/injection, schedule: Q01DX009 (sc), vehicle: saline + alcohol): 271 % of control and 284 % of control and 348 % of control | T/C (dose: 23.0 mg/kg/injection, schedule: Q01DX Z (ip), vehicle: carboxymethylcellulose (CMC)): 177 % of control and 268 % of control | T/C (dose: 23.0 mg/kg/injection, schedule: Q01DX Z (iv), vehicle: carboxymethylcellulose (CMC)): 155 % of control and 368 % of control | T/C (dose: 23.0 mg/kg/injection, schedule: Q01DX Z (oral), vehicle: carboxymethylcellulose (CMC)): 212 % of control and 222 % of control | T/C (dose: 23.0 mg/kg/injection, schedule: Q01DX Z (sc), vehicle: carboxymethylcellulose (CMC)): 156 % of control and 211 % of control and 268 % of control | T/C (dose: 23.0 mg/kg/injection, schedule: Q07DX Z (sc), vehicle: carboxymethylcellulose (CMC)): 118 % of control | T/C (dose: 24.0 mg/kg/injection, schedule: Q01DX009 (ip), vehicle: saline + alcohol): 184 % of control | T/C (dose: 24.0 mg/kg/injection, schedule: Q01DX009 (sc), vehicle: saline + alcohol): 219 % of control | T/C (dose: 30.0 mg/kg/injection, schedule: Q01DX009 (ip), vehicle: Klucel (hydroxypropylcellulose) (HPC)): 275 % of control | T/C (dose: 32.0 mg/kg/injection, schedule: Q01DX009 (sc), vehicle: saline + alcohol): 173 % of control | T/C (dose: 39.0 mg/kg/injection, schedule: Q01DX Z (oral), vehicle: carboxymethylcellulose (CMC)): 161 % of control | T/C (dose: 39.0 mg/kg/injection, schedule: Q01DX Z (sc), vehicle: carboxymethylcellulose (CMC)): 312 % of control | T/C (dose: 64.0 mg/kg/injection, schedule: Q01DX009 (ip), vehicle: saline + alcohol): 95 % of control | T/C (dose: 64.0 mg/kg/injection, schedule: Q01DX009 (sc), vehicle: saline + alcohol): 107 % of control and 120 % of control | T/C (dose: 65.0 mg/kg/injection, schedule: Q01DX001 (sc), vehicle: carboxymethylcellulose (CMC)): 200 % of control | T/C (dose: 65.0 mg/kg/injection, schedule: Q01DX Z (sc), vehicle: carboxymethylcellulose (CMC)): 237 % of control | T/C (dose: 65.0 mg/kg/injection, schedule: Q07DX Z (sc), vehicle: carboxymethylcellulose (CMC)): 475 % of control | T/C (dose: 108.0 mg/kg/injection, schedule: Q01DX001 (sc), vehicle: carboxymethylcellulose (CMC)): 193 % of control | T/C (dose: 108.0 mg/kg/injection, schedule: Q01DX Z (oral), vehicle: carboxymethylcellulose (CMC)): 122 % of control | T/C (dose: 108.0 mg/kg/injection, schedule: Q07DX Z (sc), vehicle: carboxymethylcellulose (CMC)): 250 % of control | T/C (dose: 180.0 mg/kg/injection, schedule: Q01DX001 (sc), vehicle: carboxymethylcellulose (CMC)): 362 % of control | T/C (dose: 180.0 mg/kg/injection, schedule: Q01DX Z (oral), vehicle: carboxymethylcellulose (CMC)): 116 % of control | T/C (dose: 180.0 mg/kg/injection, schedule: Q07DX Z (sc), vehicle: carboxymethylcellulose (CMC)): 193 % of control | T/C (dose: 300.0 mg/kg/injection, schedule: Q01DX001 (sc), vehicle: carboxymethylcellulose (CMC)): 243 % of control

CC1CN1CCS(=O)(=O)CCN1CC1C (stereo not drawn)
T/C (dose: 0.17 mg/kg/injection, schedule: Q01DX Z (sc), vehicle: other): 100 % of control | T/C (dose: 2.16 mg/kg/injection, schedule: Q01DX Z (sc), vehicle: other): 100 % of control | T/C (dose: 3.6 mg/kg/injection, schedule: Q01DX Z (sc), vehicle: other): 122 % of control | T/C (dose: 6.0 mg/kg/injection, schedule: Q01DX Z (sc), vehicle: other): 122 % of control

CCN=c1cc2oc3cc(NCC)c(C)cc3c(-c3ccccc3C(=O)OCC)c-2cc1C
T/C (dose: 0.63 mg/kg/injection, schedule: Q01DX009 (ip), vehicle: water): 102 % of control | T/C (dose: 0.63 mg/kg/injection, schedule: Q01DX009 (sc), vehicle: water): 100 % of control | T/C (dose: 1.25 mg/kg/injection, schedule: Q01DX009 (ip), vehicle: water): 96 % of control | T/C (dose: 1.25 mg/kg/injection, schedule: Q01DX009 (sc), vehicle: water): 104 % of control and 97 % of control | T/C (dose: 2.5 mg/kg/injection, schedule: Q01DX009 (sc), vehicle: water): 105 % of control | T/C (dose: 5.0 mg/kg/injection, schedule: Q01DX009 (sc), vehicle: water): 104 % of control

NCCCNCCCCNC(=O)C(O)NC(=O)CCCCCCN=C(N)N (stereo not drawn)
T/C (dose: 0.75 mg/kg/injection, schedule: Q01DX009 (ip), vehicle: saline): 156 % of control | T/C (dose: 1.5 mg/kg/injection, schedule: Q01DX009 (ip), vehicle: saline): 172 % of control | T/C (dose: 1.56 mg/kg/injection, schedule: Q01DX009 (ip), vehicle: saline): 162 % of control and 183 % of control | T/C (dose: 3.0 mg/kg/injection, schedule: Q01DX009 (ip), vehicle: saline): 192 % of control | T/C (dose: 3.12 mg/kg/injection, schedule: Q01DX009 (ip), vehicle: saline): 198 % of control and 203 % of control | T/C (dose: 4.0 mg/kg/injection, schedule: Q01DX001 (ip), vehicle: saline): 107 % of control | T/C (dose: 4.0 mg/kg/injection, schedule: Q03HX008 (ip), vehicle: saline): 121 % of control | T/C (dose: 6.0 mg/kg/injection, schedule: Q01DX009 (ip), vehicle: saline): 237 % of control | T/C (dose: 6.25 mg/kg/injection, schedule: Q01DX009 (ip), vehicle: saline): 207 % of control and 235 % of control | T/C (dose: 8.0 mg/kg/injection, schedule: Q01DX001 (ip), vehicle: saline): 103 % of control and 109 % of control | T/C (dose: 12.0 mg/kg/injection, schedule: Q01DX009 (ip), vehicle: saline): 239 % of control | T/C (dose: 12.5 mg/kg/injection, schedule: Q01DX009 (ip), vehicle: saline): 228 % of control and 231 % of control | T/C (dose: 16.0 mg/kg/injection, schedule: Q01DX001 (ip), vehicle: saline): 107 % of control and 113 % of control | T/C (dose: 25.0 mg/kg/injection, schedule: Q01DX009 (ip), vehicle: saline): 160 % of control and 220 % of control and 275 % of control | T/C (dose: 32.0 mg/kg/injection, schedule: Q01DX001 (ip), vehicle: saline): 115 % of control and 123 % of control

CC[C@H](c1ccc(O)cc1)[C@@H](CC)c1ccc(O)cc1
T/C (dose: 130.0 mg/kg/injection, schedule: Q01DX Z (sc), vehicle: methylcellulose (MC)): 111 % of control
